Laboratory results as given in patent US20090074815A1, “Immunomodulator Compounds as Vaccine Enhancers” (SCICLONE PHARMACEUTICALS, INC., priority 2005, published 2009).

Tested on: IL-2 production by ConA-stimulated splenocytes
Experiment: IL-2 production by ConA-stimulated splenocytes
Type: in vivo, mice

N[C@H](CCC(=O)N[C@@H](Cc1c[nH]c2ccccc12)C(=O)O)C(=O)O [SCV-07, γ-D-glutamyl-L-tryptophan]
IL-2 production (U/ml), M ± SD (ConA 1 μg/ml, 0.01 μg/kg per os): 10.4 ± 1.1 U/ml
IL-2 production (U/ml), M ± SD (ConA 1 μg/ml, 0.1 μg/kg i/p): 16.1 ± 0.8 U/ml
IL-2 production (U/ml), M ± SD (ConA 1 μg/ml, 0.1 μg/kg per os): 7.5 ± 0.1 U/ml
IL-2 production (U/ml), M ± SD (ConA 1 μg/ml, 1.0 μg/kg i/p): 15.6 ± 0.3 U/ml
IL-2 production (U/ml), M ± SD (ConA 1 μg/ml, 1.0 μg/kg per os): 10.0 ± 0.4 U/ml
IL-2 production (U/ml), M ± SD (ConA 1 μg/ml, 10.0 μg/kg per os): 9.1 ± 1.3 U/ml
IL-2 production (U/ml), M ± SD (ConA 1 μg/ml, 100.0 μg/kg per os): 14.9 ± 2.4 U/ml
IL-2 production (U/ml), M ± SD (ConA 2 μg/ml, 0.01 μg/kg per os): 66.9 ± 12.6 U/ml
IL-2 production (U/ml), M ± SD (ConA 2 μg/ml, 0.1 μg/kg i/p): 93.4 ± 28.3 U/ml
IL-2 production (U/ml), M ± SD (ConA 2 μg/ml, 0.1 μg/kg per os): 85.8 ± 6.6 U/ml
IL-2 production (U/ml), M ± SD (ConA 2 μg/ml, 1.0 μg/kg i/p): 99.3 ± 6.1 U/ml
IL-2 production (U/ml), M ± SD (ConA 2 μg/ml, 1.0 μg/kg per os): 60.8 ± 1.2 U/ml
IL-2 production (U/ml), M ± SD (ConA 2 μg/ml, 10.0 μg/kg per os): 56.4 ± 2.1 U/ml
IL-2 production (U/ml), M ± SD (ConA 2 μg/ml, 100.0 μg/kg per os): 79.3 ± 16.3 U/ml
IL-2 production (U/ml), M ± SD (Spontaneous, 0.01 μg/kg per os): 0.0 ± 0.0 U/ml
IL-2 production (U/ml), M ± SD (Spontaneous, 0.1 μg/kg i/p): 2.0 ± 0.3 U/ml
IL-2 production (U/ml), M ± SD (Spontaneous, 0.1 μg/kg per os): 0.0 ± 0.0 U/ml
IL-2 production (U/ml), M ± SD (Spontaneous, 1.0 μg/kg i/p): 2.7 ± 0.3 U/ml
IL-2 production (U/ml), M ± SD (Spontaneous, 1.0 μg/kg per os): 0.3 ± 0.5 U/ml
IL-2 production (U/ml), M ± SD (Spontaneous, 10.0 μg/kg per os): 0.0 ± 0.0 U/ml
IL-2 production (U/ml), M ± SD (Spontaneous, 100.0 μg/kg per os): 0.3 ± 0.5 U/ml
